Assay results from article PMC2151269, “Broad phase II and pharmacokinetic study of methoxy-morpholino doxorubicin (FCE 23762-MMRDX) in non-small-cell lung cancer, renal cancer and other solid tumour patients” (British Journal of Cancer, 1998).

Assay: Leucocyte (cellular) drug levels 2 and 24 h after injection
Type: in vivo, human
Settings: leucocytes
Excerpt: British Jourmal of Cancer (1998) 77(1), 139-146 ? 1998 Cancer Research Campaign Broad phase 11 and pharmacokinetic study of methoxy-morpholino doxorubicin (FCE 23762-MMRDX) in non-small-cell lung cancer, renal cancer and other solid tumour patients M Bakker', JP Droz2, AR Hanauske3, J Verweij4, AT van Oosterom5, HJM Groen', MA Pacciarini6, L Domenigoni6, F van Weissenbruch', E Pianezzola6 and EGE de Vries' 'University Hospital Groningen, The Netherlands; 2Centre L6on Berard, Lyon, France; 3Med. […] Patients received a maximum of six cycles. […] Limitations of the clinical value of anthracyclines are their toxicity profile, especially irreversible, dose-related cardiotoxicity, and intrinsic or acquired tumour resis- tance. Various mechanisms play a role in tumour cell resistance to anthracyclines, including overexpression of drug efflux pumps such as P-glycoprotein, decreased levels of the target enzyme topoisomerase II, and an increase in cellular detoxifying capacity (Kaye and Merry, 1985; Deffie et al, 1989; De Jong et al, 1990; Ford and Hait, 1990; Meijer et al, 1990; Zaman et al, 1994). The morpholinyl anthracyclines have been developed in the course of research aimed at identifying new anthracyclines with at least partially novel modes of action in addition to activity against resis- tant tumours (Acton et al, 1984). […] Box 30.001, 9700 RB Groningen, The Netherlands (Figure 1).

13-dihydro-3'-deamino-3'-[2(S)-methoxy-4-morpholinyl] doxorubicin [13-dihydro metabolite]
Intracellular levels as % of total MMRDX cellular levels: ≤ 5%
